PMC5655689, “Therapeutic potential of the phosphino Cu(I) complex (HydroCuP) in the treatment of solid tumors” (Scientific Reports, 2017)
Several values for one entry are separate records, joined by “and”; a condition that tells them apart may be missing. Identical values can stand only once.

Experiments:
[1] = test system: Lewis Lung Carcinoma (LLC); assay: In vivo antitumor activity towards Lewis Lung Carcinoma (LLC) implanted i.m. in C57BL mice; design: species or system mouse; settings: for Average tumor weight (mean ± S.D., g) / Inhibition of tumor growth (%): day 15
Description: The schedule of HydroCuP administration in vivo was initially determined by assessing the total dose that could be injected without undue toxicity for different schedules in nontumor-bearing C57BL mice (data not shown). […] Three schedules of i.p. HydroCuP were administered: early treatment (days 3, 5, 7 and 9 after tumor inoculum), intermediate treatment (days 7–14) and late treatment with split-doses (days 9–11 with a loading dose and days 12–14 with a lower maintenance dose). […] Cisplatin treatment schedule was selected according to standard protocols designed to optimize its efficacy and minimize the occurrence of adverse events. For the early treatment, control mice received the vehicle (0.9% NaCl). HydroCuP was dosed at 25, 35 and 50 mg/kg i.p. on days 3, 5, 7, 9, 11 and 13 after tumor implantation. Cisplatin was dosed at 1.5 mg/kg i.p. on days 3, 5, 7, 9, 11 and 13 after tumor implantation.
The mice were purchased from Charles River, Italy, housed in steel cages under controlled environmental conditions (constant temperature, humidity, and 12 h dark/light cycle), and alimented with commercial standard feed and tap water ad libitum. The LLC cell line was purchased from ECACC, United Kingdom. The LLC cell line was maintained in DMEM (Euroclone, Pero, Italy) supplemented with 10% heat-inactivated foetal bovine serum (Euroclone, Pero, Italy), 10 mM L-glutamine, 100 U/mL penicillin, and 100 µg/mL streptomycin in a 5% CO2 air incubator at 37 °C. The LLC was implanted intramuscularly (i.m.) as a 2 × 10^6 cell inoculum into the right hind leg of 8-week old male and female C57BL mice (24 ± 3 g body weight). The antitumor activity of HydroCuP in LLC tumor model has been investigated by means of different schedules (early treatment, intermediate treatment and late treatment) and compared with that promoted by the reference metallodrug, CDDP. In the early-stage treatment, animals were treated at day 3, 5, 7, 9, 11 and 13 after the tumor cell inoculum with an i.p. injection of HydroCuP (25, 35 and 50 mg/kg), CDDP (1.5 mg/kg) or the vehicle solution (0.9% NaCl).
In the intermediate treatment, animals were treated after 7 days from tumor implantation (visible tumor) with daily i.p. doses of HydroCuP (30 and 50 mg/kg), CDDP (1.5 mg/kg) or the vehicle solution (0.9% NaCl). In the late treatment, animals were treated after 9 days from tumor implantation (palpable tumor) with i.p. doses of HydroCuP (50 mg/kg) from day 9 to day 11 and with i.p. doses of HydroCuP (30 mg/kg) from day 12 to day 14, or with daily doses of CDDP (1.5 mg/kg) or with the vehicle solution (0.9% NaCl). At day 15, animals were sacrificed, the legs were amputated at the proximal end of the femur, and the inhibition of tumor growth was determined according to the difference in weight of the tumor-bearing leg and the healthy leg of the animals expressed as a percentage referring to the control animals. Body weight was measured every 2 days and was taken as a parameter for systemic toxicity.

[2] = Nephrotoxicity: urinary biomarkers (uTP, NAG) in Sprague Dawley rats; assay type: in vivo, rat; settings: single i.p. HydroCuP 50 mg/kg vs CDDP 1.5 mg/kg
Description: Figure 5 Neurotoxicity studies. […] Bar: 500 µm. […] Nephrotoxicity studies. […] Error bars indicate the S.D. The potential nephrotoxic effect of HydroCuP was evaluated by measuring some specific biomarkers in urines obtained from 8-week-old male Sprague Dawley rats treated with a single i.p. injection of HydroCuP and CDDP. Urines of the treated animals were collected after 24, 72 and 120 h, and urinary total protein (uTP) and N-acetyl-β-D-glucosaminidase (NAG) were evaluated as signs of nephrotoxicity. […] On the contrary, treatment with HydroCuP determined a 24 h excretion of uTP roughly 12 times lower than that recorded with CDDP (Fig. 5, panel D). Following 120 h, the levels of uTP excreted by HydroCuP were 11 times lower compared with the reference metallodrug. Eight-week-old male Sprague Dawley rats were randomly allocated to five groups (five animals per group) and treated with a single i.p. injection of HydroCuP (50 mg/kg) or the vehicle solution (0.2 mL saline solution, control). Cisplatin (1.5 mg/kg,) was also used under the same experimental conditions for comparison purposes. […] Later, urines were centrifuged (150 g for 10 minutes at room temperature) to discard debris and aliquoted to measure creatinine, uTP and NAG. Urine creatinine assays were performed using creatinine assay kit from Sigma Chemical Co. (St. Louis, MO). uTPs were measured by means of BioRad Total Protein Test (Hercules, CA). Urinary NAG was measured spectrophotometrically with the NAG kit (Roche diagnostics, Basel, Switzerland) according to the manufacturer’s protocols. uTP and NAG are expressed as grams per millimoles of creatinine (g mmol^−1 creatinine).

[3] = test system: LoVo colorectal oxaliplatin-resistant xenograft; settings: mouse, in vivo, ip, 30 mg/kg
Description: (§1) To this aim, we developed the OXP-sensitive and OXP-resistant LoVo xenografts in BALB/c nu/nu mice. […] OXP-sensitive or OXP-resistant LoVo cells (1 × 10^7) were injected in the flank of mice. Once tumor was established (tumor volumes of about 0.4 cm^3, around 14 days after tumor inoculation), mice were randomly divided into six groups (6 animals per group, 8 controls). The HydroCuP-treated groups (6 mice each group) received daily 30 mg/kg by i.p. injection and the OXP-treated group was given 2 mg/kg by i.p. injection. At day 30, animals were sacrificed, and the inhibition of tumor growth was determined (Fig. 4, panel A). Measurements of body weights were recorded from day 14 every 2 days until the experimental endpoint (Fig. 4, panel B).
(§2) (A) LoVo and LoVo-OXP tumor xenografts in 6-week-old BALB/c nu/nu mice by injecting 1 × 10^7 tumor cells subcutaneously on the left dorsal flank. After 24 h from tumor implantation, mice randomly divided into six groups (6 animals per group). Chemotherapy delayed until day 14 (tumor volumes of about 0.4 cm^3). From day 14, HydroCuP dosed daily at 30 mg/kg i.p., OXP dosed daily at 2 mg/kg i.p. At day 30, animals sacrificed, and the inhibition of tumor growth determined by comparing the volume of the control group and the treatment group expressed as percentage referred to the control animals. Error bars indicate the S.D. *p < 0.05, **p < 0.01, with respect to control. […] Body weight was measured every two days and was taken as a parameter of systemic toxicity. The error bars indicate the S.D. **P < 0.01; *P < 0.05.
(§3) LoVo and LoVo-OXP tumor xenografts were established in 6-week-old BALB/c nu/nu mice by injecting 1 × 10^7 tumor cells subcutaneously (100 μL in serum free medium) on the left dorsal flank. After 24 h from tumor implantation, mice were randomly divided into six groups (6 animals per group, 8 controls). Chemotherapy was delayed until the tumor was about 0.4 cm^3 (day 14). From day 14, HydroCuP was dosed daily at 30 mg/kg i.p. whereas OXP was dosed daily at 2 mg/kg i.p. Measurements of body weights and tumor volumes were recorded from day 14 every 2 days until the experimental endpoint. The long axis (L) and the short axis (S) were measured with callipers, and the tumor volume (V) was calculated using the following equation: V = SxSxL/2. At day 30, animals were sacrificed, and the inhibition of tumor growth was determined by comparing the volume of the control group and the treatment group expressed as percentage referred to the control animals.

[4] = design: method as in PMID 21388518, PMID 20486256; settings: pH 7.4; cited from earlier work
26S proteasome = test system: 26S proteasome; design: method as in PMID 21388518; settings: cited from earlier work
[5] = test system: LoVo colorectal oxaliplatin-resistant xenograft; assay: In vivo activity toward LoVo-OXP (OXP-resistant) tumor xenograft in BALB/c nu/nu mice; settings: 30 mg/kg daily i.p. from day 14, day 30
Description: as §1, §2, §3

[6] = Early treatment, 35 mg/kg i.p. days 3, 5, 7, 9, 11, 13
[7] = Early treatment, 50 mg/kg i.p. days 3, 5, 7, 9, 11, 13

## F[P-](F)(F)(F)(F)F.OC[P+](CO)(CO)[Cu-3]([P+](CO)(CO)CO)([P+](CO)(CO)CO)[P+](CO)(CO)CO [HydroCuP, [Cu(thp)4][PF6]]
[1]; Early treatment, 25 mg/kg i.p. days 3, 5, 7, 9, 11, 13
  Average tumor weight (mean ± S.D., g): 0.473 ± 0.12 g
[1]; Early treatment, 25 mg/kg i.p. days 3, 5, 7, 9, 11, 13, 25 mg/kg
  Inhibition of tumor growth (%): 26% and 25.86%
[1]; [6]
  Average tumor weight (mean ± S.D., g): 0.273 ± 0.04 g
  Inhibition of tumor growth (%): 57.21%
[1]; [7]
  Average tumor weight (mean ± S.D., g): 0.113 ± 0.04 g
  Inhibition of tumor growth (%): 82.28%
[1]; Early treatment, LLC-bearing C57BL mice, 15 days
  Body weight changes: did not induce significant body weight loss
[1]; Intermediate treatment, 30 mg/kg daily i.p. day 7-14
  Average tumor weight (mean ± S.D., g): 0.088 ± 0.03 g
[1]; Intermediate treatment, 30 mg/kg daily i.p. day 7-14, 30 mg/kg
  Inhibition of tumor growth (%): 82% and 82.37%
[1]; Intermediate treatment, 50 mg/kg daily i.p. day 7-14
  Average tumor weight (mean ± S.D., g): 0.071 ± 0.02 g
[1]; Intermediate treatment, 50 mg/kg daily i.p. day 7-14, 50 mg/kg
  Inhibition of tumor growth (%): 85% and 85.85%
[1]; Intermediate treatment, LLC-bearing C57BL mice
  Body weight loss: < 10%
[1]; Late treatment, 50 mg/kg (days 9-11) then 30 mg/kg (days 12-14) daily i.p.
  Average tumor weight (mean ± S.D., g): 0.024 ± 0.03 g
[1]; Late treatment, LLC-bearing C57BL mice
  Body weight changes / adverse effects: did not induce any adverse effects including significant body weight loss
[2]; urine 24, 72, 120 h
  NAG activity, times lower than CDDP: up to 12
[2]; urine 24 h
  24 h excretion of uTP, times lower than CDDP: roughly 12
[2]; urine 120 h
  uTP excreted, times lower than CDDP: 11
[3]
  Body weight and health vs control group: No significant difference in body weight
[4]
  Water solubility: > 2.0 mg/mL
26S proteasome
  Effect on CT-L, T-L and C-L catalytic activities of 26S proteasome: inhibit chymotrypsin-like (CT-L), trypsin-like (T-L) and caspase-like (C-L) catalytic activities of 26S proteasome
[5]
  Inhibition of tumor growth (decrease in final tumor volume): about 65%
